Experimental data reported in patent EP0155872A1, “Process for reducing the lignin content of plants, and compositions for putting it into use” (priority 1984, dated 1985).
“Also recorded” adds a separate entry of the source. Like-named read-outs stand apart in the source and are kept apart here.

Columns and labels:
CAD de peuplier = target: T1, CAD de peuplier (Populus deltoides, UniProt P31657); test: In vitro inhibition of isolated poplar cinnamyl alcohol dehydrogenase (CAD) at 2 mM; assay type: biochemical; conditions: for inhibition at 2000 µM / Inhibition à 2mM %: 2mM, CAD de peuplier; for inhibition at 2000 µM: read-out: Inhibition à 2mM %
T1 construct: CAD de peuplier isolée selon la méthode deSARNI et al,1984; from tissue; host or cells: poplar plant material
T1 sequence (P31657 1-357): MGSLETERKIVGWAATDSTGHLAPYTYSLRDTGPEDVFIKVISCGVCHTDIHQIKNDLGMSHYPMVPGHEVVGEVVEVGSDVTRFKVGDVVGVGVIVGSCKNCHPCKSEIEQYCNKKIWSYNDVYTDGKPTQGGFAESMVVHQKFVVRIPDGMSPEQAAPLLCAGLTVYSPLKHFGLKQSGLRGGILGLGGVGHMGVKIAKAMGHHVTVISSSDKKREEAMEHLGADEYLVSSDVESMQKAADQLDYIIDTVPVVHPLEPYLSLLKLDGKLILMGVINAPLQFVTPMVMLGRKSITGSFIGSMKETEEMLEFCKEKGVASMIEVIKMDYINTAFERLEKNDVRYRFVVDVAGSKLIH
Source text: Après réacidification à pH2 par de l'acide chlorhydrique 3N et centrifugation, le surnageant contenant les acides cinnamiques est séparé du résidu. Les "poudres alcool-benzène" ainsi hydrolysées sont lavées par de l'eau distillée jusqu'à pH neutre et séchées, sous vide dans un dessiccateur en présence de silica.-gel. Les teneurs en lignines sont estimées par la méthode gravimétriques de KLASON (Tappi Standard method Tl2m) modifiée par EFFLAND. Tappi, 60, p 143-144, 1977. On rapporte dans le tableau 1) suivant les résultats obtenus concernant l'effet mesuré in vitro d'inhibiteurs selon l'invention à une concentration de 2mM vis-à-vis de la CAD de peuplier isolée selon la méthode deSARNI et al,1984,EUROP JOURNAL OF BIOCHEMISTRY, 18(1),139, 259-265 On indique également dans ce tableau les résultats obtenus avec des composés portant des substitutions différentes de ceux mis enoe uvre dans l'invention. Les chiffres indiqués entre parenthèses a côté des formules correspondent aux composés identifiés dans les exemples de préparation 2 et 3.
On rapporte dans le tableau 2 suivant les pourcentages d'inhibition de la CAD obtenus en utilisant, à raison de 2 mM, différents composés capables de complexer Zn.

cultures de tabac = conditions: prior art; cited from earlier work
CAD = target: T2, CAD (Populus deltoides, UniProt P31657); test: In vitro CAD activity with nitro derivatives, physiological direction (aldehyde reduction, NADPH oxidation at 340 nm); assay type: biochemical; conditions: read-out: % d'inhibition (activité CAD); for inhibition at 230 µM: Concentration finale dans le milieu 0,230 mM; for inhibition at 375 µM: Concentration finale dans le milieu 0,375 mM
T2 sequence (P31657 1-357): T1 sequence (P31657 1-357)
Source text: η) Effets des dérivés nitrés sur l'activité CAD "in vitro". Concentration finale % d'inhibition
Les mesures ont été réalisées dans le sens physiologique (aldéhyde alcool), c'est-à-dire en suivant la réduction de l'aldéhyde (oxydation du NADPH mesurée à 340 nm).(Les tests sont plus sensibles et plus proches du milieu "in vivo".

Compound: CC(C)(C)OC(=O)CS(=O)(=O)NC1CCCCC1 [compound 14, N-(Cyclohexyl)sulfamoyl acétate de tertiobutyle]
- inhibition at 2000 µM (CAD de peuplier): 0%

Compound: N-tert-butyl-methoxy-2 (Iminomethyl) - 4 phénol [BIP, reference compound]
- Inhibition à 2mM % (CAD de peuplier): 50%

Compound: (Hydroxy-4-methoxy-3-phényl)-3-Hydroxy-3-propanethiate de 5-phényle [HMHP, reference compound]
- Inhibition à 2mM % (CAD de peuplier): 40%

Compound: CC(C)(C)OC(=O)CS(=O)(=O)Nc1ccccc1 [composé 7a, N-(phényl)sulfamoyl acétate de tertiobutyle]
- inhibition at 2000 µM (CAD de peuplier): 50%

Compound: NOC(Cc1ccccc1)C(=O)O (racemic) [acide D,L-α-aminoxy-β -phényl-propionique]
- réduction des phénols totaux (cultures de tabac): ~30%

Compound: O=C(O)CS(=O)(=O)Nc1ccccc1 [NPS, N-(phényl) sulfamoyle]
- inhibition at 2000 µM (CAD de peuplier): 45%

Compound: CC(C)(C)OC(=O)C[S+]([O-])Nc1ccccc1 (stereo not shown) [composé 1, N-(phényl)sulfinamoyl acétate de tertiobutyle]
- inhibition at 2000 µM (CAD de peuplier): 50%

Compound: CC(C)(C)OC(=O)C[S+]([O-])Nc1ccc([N+](=O)[O-])cc1O (stereo not shown) [nitro OH PAS]
- inhibition at 230 µM (CAD): 5%
- inhibition at 375 µM (CAD): 41%
- inhibition at 500 µM (CAD; Concentration finale dans le milieu 0,500 mM): 100%

Compound: CC(C)(C)OC(=O)C(C)(C)[S+]([O-])Nc1ccccc1 (stereo not shown) [compound 15, N-(Phényl)sulfinamoyl isobutyrate de tertiobutyle]
- inhibition at 2000 µM (CAD de peuplier): 0%
- inhibition de l'activité CAD (in words) (CAD de peuplier; listed as NPSI): inefficaces; also recorded: n'inhibent pas

Compound: CC(C)[S+]([O-])Nc1ccccc1 (stereo not shown) [NPSP, N-(phényl) sulfinamoyl d'isopropyle, reference compound]
- inhibition de l'activité CAD (in words) (CAD de peuplier): inefficaces; also recorded: n'inhibent pas
- inhibition at 2000 µM (CAD de peuplier): 0%

Compound: O=C(O)CSCC(=O)c1ccccc1 [Acide oxo-5-phényl-5-thia-3, reference compound]
- inhibition at 2000 µM (CAD de peuplier): 40%

Compound: N-(Thiazolyl-2) Sulfanilamide [NTS, reference compound]
- Inhibition à 2mM % (CAD de peuplier): 55%

Compound: CC(C)(C)OC(=O)C[S+]([O-])NC1CCCCC1 (stereo not shown) [compound 17, N-(Cyclohexyl)sulfinamoyl acétate de tertiobutyle]
- inhibition at 2000 µM (CAD de peuplier): 0%

Compound: CC(C)(C)OC(=O)C[S+]([O-])Nc1ccc([N+](=O)[O-])cc1 (stereo not shown) [nitro PAS]
- inhibition at 125 µM (CAD; Concentration finale dans le milieu 0,125 mM): 14%
- inhibition at 188 µM (CAD; Concentration finale dans le milieu 0,188 mM): 28%
- inhibition at 230 µM (CAD): 68%
- inhibition at 375 µM (CAD): 100%

Compound: CC(C)(C)OC(=O)CC(=O)Nc1ccccc1 [PCAD, Phényl(carbamoyl) acétate de tertiobutyle, reference compound]
- inhibition at 2000 µM (CAD de peuplier): 0%
